Measured values reported in patent US11787782B2, “Combinations of a 4-pyrimidinesulfamide derivative with active ingredients for the treatment of endothelin related diseases” (IDORSIA PHARMACEUTICALS LTD, priority 2017, dated 2023).
Blank lines part the entries; values can stand above or below the molecule they belong to.

Experiments:
[1] = system: conscious, male hypertensive Dahl salt-sensitive rats; experiment: Acute effects on MAP and HR by telemetry in Dahl salt-sensitive rats; type: in vivo, rat; settings: Dahl-S rats
Protocol: The acute effects of ACT-132577 on blood pressure, in particular on mean arterial blood pressure (hereafter “MAP”), and heart rate (hereafter “HR”) were evaluated by means of telemetry in conscious, male hypertensive Dahl salt-sensitive rats (hereafter “Dahl-S rats”—see details about this model in Rapp, Hypertension (1982), 4, 753-763). Elevated blood pressure is induced in Dahl-S rats by providing 1% sodium chloride in drinking water. Groups of 6-7 Dahl-S rats were used for the vehicle (7.5% gelatin aqeuous solution) and each dose of ACT-132577 tested (0.3, 1, 3, 10, 30, 100, and 300 mg/kg). Effects of ACT-132577 on HR and MAP were calculated for individual animals relative to the 24 h period before administering. The results obtained regarding MAP (maximal MAP decrease observed over 6 consecutive hours) are summarised in FIG. 9 (data are presented as mean±standard error of the mean). In summary, a dose of 10 mg/kg ACT-132577 decreased MAP by 19±4 mm Hg in Dahl-S rats. In contrast to MAP, HR was not affected.

[2] = system: conscious, male hypertensive deoxycorticosterone acetate salt rats; experiment: Acute effects on MAP and HR by telemetry in DOCA-salt rats; type: in vivo, rat
Protocol: The acute effects of ACT-132577 on blood pressure, in particular on mean arterial blood pressure (hereafter “MAP”), and heart rate (hereafter “HR”) were evaluated by means of telemetry in conscious, male hypertensive deoxycorticosterone acetate salt rats (hereafter “DOCA-salt rats”—see details about this model in Gavras et al., Circ. Res. (1975), 36, 300-309). In the DOCA-salt rats, hypertension is induced by the combination of unilateral nephrectomy, implantation of pellets of the mineralocorticoid analog DOCA, and provision of 1% sodium chloride in drinking water. Groups of 6-11 DOCA-salt rats were used for the vehicle (7.5% gelatin aquous solution) and each dose of ACT-132577 tested (0.3, 1, 3, 10, 30, 100, and 300 mg/kg). Effects of ACT-132577 on HR and MAP were calculated for individual animals relative to the 24 h period before administering. The results obtained regarding MAP (maximal MAP decrease observed over 6 consecutive hours) are summarised in FIG. 10 (data are presented as mean±standard error of the mean). In summary, a dose of 10 mg/kg ACT-132577 decreased MAP by 29±6 mm Hg in DOCA-salt rats. In contrast to MAP, HR was not affected.

[3] = system: conscious, male spontaneously hypertensive rats; experiment: Acute effects on MAP and HR by telemetry in spontaneously hypertensive rats; type: in vivo, rat; settings: SHRs
Protocol: The acute effects of ACT-132577 on blood pressure, in particular on mean arterial blood pressure (hereafter “MAP”), and heart rate (hereafter “HR”) were evaluated by means of telemetry in conscious, male spontaneously hypertensive rats (hereafter “SHRs”—see details about this model in Atanur et al., Genome Res. (2010), 20, 791-803). Groups of 4-6 SHRs were used for the vehicle (7.5% gelatin aquous solution) and each dose of ACT-132577 tested (1, 3, 10, 30, 100, and 300 mg/kg). Effects of ACT-132577 on HR and MAP were calculated for individual animals relative to the 24 h period before administering. The results obtained regarding MAP (maximal MAP decrease observed over 6 consecutive hours) are summarised in FIG. 11 (data are presented as mean±standard error of the mean). In summary, a dose of 100 mg/kg ACT-132577 decreased MAP by 18±4 mm Hg in SHRs. In contrast to MAP, HR was not affected.

[4] = system: conscious, male hypertensive deoxycorticosterone acetate salt rats; experiment: Chronic effects of repeated oral administration in DOCA-salt rats; type: in vivo, rat
Protocol: The chronic effects of repeated administrations of doses of 1, 10 and 100 mg/kg/day of ACT-132577, in particular mean arterial blood pressure (hereafter “MAP”), and heart rate (hereafter “HR”), were evaluated in conscious, male hypertensive deoxycorticosterone acetate salt rats (hereafter “DOCA-salt rats”-see details about this model in Gavras et al., Circ. Res. (1975), 36, 300-309). In the DOCA-salt rats, hypertension is induced by the combination of unilateral nephrectomy, implantation of pellets of the mineralocorticoid analog DOCA, and provision of 1% sodium chloride in drinking water. The results of the DOCA-salt rats treated with ACT-132577 were compared to those obtained for Wistar rats or for DOCA-salt rats that received only the vehicle (4% gelatin aquous solution).

[5] = system: male Wistar rats; experiment: Effect on fluid retention (haematocrit) in Wistar rats; type: in vivo, rat; settings: single oral dose 1-30 mg/kg, 24 hours after administration
Protocol: A decrease in haematocrit (Hct) or haemoglobin occurs secondary to an increase in plasma volume and can be used as a marker of fluid retention. A single oral dose of aprocitentan (1-30 mg/kg) or vehicle (gelatin) was administered by gavage to male Wistar rats. Twenty-four hours after administration, sublingual blood was sampled under isoflurane-induced anesthesia. Haematocrit was measured using a hematology analyser.

[6] = system: conscious, male spontaneously hypertensive rats; experiment: Acute effects on top of Exforge HCT in SHRs (telemetry); type: in vivo, rat; settings: for Blood pressure when added on top of Exforge HCT: aprocitentan 100 mg/kg or spironolactone 300 mg/kg oral, Exforge HCT 1.6/0.1/0.25 mg/kg
Protocol: The acute effects of Exforge HCT® (i.e. a fixed dose combination of valsartan/amlodipine/hydrochlorothiazide; dosage adapted for 1.6 mg/kg/0.1 mg/kg/0.25 mg/kg for valsartan/amlodipine/hydrochlorothiazide, respectively) on blood pressure, in particular on mean arterial blood pressure (hereafter “MAP”), and heart rate (hereafter “HR”) in combination with ACT-132577 or spironolactone were also evaluated by means of telemetry in conscious, male spontaneously hypertensive rats (hereafter “SHRs”-see details about this model in Atanur et al., Genome Res. (2010), 20, 791-803).
9 SHRs per treatment group were used for this test. To match the maximal effect on blood pressure of co-administered drug in this model, aprocitentan 100 mg/kg was administrated orally on the 3rd day following 3-day oral administration of Exforge HCT® mg/kg and spironolactone 300 mg/kg was co-administered orally with Exforge HCT® on the 1st day followed by 2 days of Exforge HCT® administration. The results obtained regarding MAP are summarised in FIGS. 19 and 20 wherein each data point is presented as a 6-hour mean.

[7] = system: conscious, male hypertensive deoxycorticosterone acetate salt rats; experiment: Acute effects on top of Exforge HCT in DOCA-salt rats (telemetry); type: in vivo, rat; settings: for Blood pressure when added on top of Exforge HCT: aprocitentan 10 mg/kg or spironolactone 300 mg/kg oral, Exforge HCT 3.2/0.2/0.5 mg/kg
Description: Res. (1975), 36, 300-309). In the DOCA-salt rats, hypertension is induced by the combination of unilateral nephrectomy, implantation of pellets of the mineralocorticoid analog DOCA, and provision of 1% sodium chloride in drinking water. 7-9 DOCA-salt rats per treatment group were used for this test. The results obtained regarding MAP are summarised in FIGS. 21 and 22 wherein each data point is presented as a 6-hour mean.

[8] = in comparison to corresponding alkylated derivatives; cited from earlier work
[9] = Storage at room temperature (crystal form stability, XRPD and HPLC control); type: physicochemical; settings: 20-25° C.
Protocol: All XRPD patterns for the solid forms described herein have been obtained as described hereafter. X-ray powder diffraction patterns were collected on a Bruker D8 Advance X-ray diffractometer equipped with a Lynxeye detector operated with CuKα-radiation in reflection mode (coupled two Theta/Theta). Typically, the X-ray tube was run at of 40 kV/40 mA. A step size of 0.02° (2θ) and a step time of 76.8 sec over a scanning range of 3-50° in 2θ were applied. The divergence slit was set to fixed 0.3. Powders were slightly pressed into a silicon single crystal sample holder with depth of 0.5 mm and samples were rotated in their own plane during the measurement. Diffraction data are reported using combined Cu Kα1 and Kα2 radiation, without Kα2 stripping. The accuracy of the 2θ values as provided herein is in the range of +/−0.1-0.2° as it is generally the case for conventionally recorded X-ray powder diffraction patterns. A sample of Form A crystals of the COMPOUND (as obtained according to Example 1 above) has been stored at a temperature of 20-25° C. at 92% relative humidity for 2 months. […] The same result was obtained after storage for 8 weeks under the above conditions. […] A sample of Form B crystals of a dichloromethane solvate of the COMPOUND (as obtained according to Example 2 above) has been stored in a closed vial ([…] of Form B crystals being placed in a closed 4 mL vial) at a temperature of 20-25° C. for about 3 weeks. […] A sample of Form K crystals of a dimethylsulfoxide solvate of the COMPOUND (as obtained according to Example 7 above) has been stored in a closed vial ([…] of Form K crystals being placed in a closed 4 mL vial) at a temperature of 20-25° C. for about 3 weeks.

[10] = Hygroscopicity by gravimetric vapor sorption (GVS); type: physicochemical
Description: Mass increase of a sample as obtained according to Example 1 in the first cycle from 40% r.h. to 80% r.h. corresponds to 0.4%. At 95% r.h. 2.2% moisture were taken up in a reversible way without hysteresis upon drying.

[11] = system: patients with rHT; settings: 14 week phase 3 trial, cited from earlier work
[12] = 10 mg/kg, mean±standard error of the mean
[13] = DOCA-salt rats, 1, 10 and 100 mg/kg/day oral for 4 weeks
[14] = DOCA-salt rats, chronic oral administration

Haematocrit (Hct), marker of fluid retention [5]: did not impact on haematocrit
Compound: NS(=O)(=O)Nc1ncnc(OCCOc2ncc(Br)cn2)c1-c1ccc(Br)cc1 [ACT-132577, {5-(4-bromo-phenyl)-6-[2-(5-bromo-pyrimidin-2-yloxy)-ethoxy]-pyrimidin-4-yl}-sulfamide]
MAP decrease (maximal decrease over 6 consecutive hours) [1, 12]: 19±4 mm Hg
Heart rate (HR) ([1]; doses 0.3-300 mg/kg): not affected
MAP decrease (maximal decrease over 6 consecutive hours) [2, 12]: 29±6 mm Hg
Heart rate (HR) ([2]; doses 0.3-300 mg/kg): not affected
MAP decrease (maximal decrease over 6 consecutive hours) ([3]; 100 mg/kg, mean±standard error of the mean): 18±4 mm Hg
Heart rate (HR) ([3]; doses 1-300 mg/kg): not affected
DOCA-salt-induced increase in MAP [4, 13]: dose-dependently attenuated the DOCA-salt-induced increase in MAP
Heart rate (HR) [4, 13]: without changing HR
Left ventricular hypertrophy [4, 14]: tended to decrease left ventricular hypertrophy
Plasma concentrations of N-terminal pro-brain natriuretic peptide (NTproBNP) [4, 14]: dose-dependent decrease
Renal blood flow [4, 14]: dose-dependently increased renal blood flow
Renal vascular resistance [4, 14]: decreased renal vascular resistance
Blood pressure when added on top of Exforge HCT [6]: further reduced blood pressure
Blood pressure reduction compared with spironolactone, on top of Exforge HCT ([6]; aprocitentan 100 mg/kg vs spironolactone 300 mg/kg): greater blood pressure reduction than spironolactone
Blood pressure when added on top of Exforge HCT [7]: further reduced blood pressure
Blood pressure reduction compared with spironolactone, on top of Exforge HCT ([7]; aprocitentan 10 mg/kg vs spironolactone 300 mg/kg): greater blood pressure reduction than spironolactone
Clearance in vivo [8]: much shorter clearance
Half-life in vivo [8]: much longer half-life

Crystal form by X-ray powder diffraction after storage ([9]; 92% relative humidity, 2 months): still consisting only in Form A crystals
Crystal form by X-ray powder diffraction after storage ([9]; 92% relative humidity, 8 weeks): same result
HPLC control after storage (change in peak area %, degradation) ([9]; 92% relative humidity, 8 weeks): no significant degradation
Moisture taken up ([10]; at 95% r.h., reversible, without hysteresis upon drying): 2.2%
Mass increase ([10]; first cycle from 40% r.h. to 80% r.h.): 0.4%
Hygroscopicity (GVS) ([10]; sample obtained according to Example 1): slightly hygroscopic
Compound: NS(=O)(=O)Nc1ncnc(OCCOc2ncc(Br)cn2)c1-c1ccc(Br)cc1 [Form A, {5-(4-bromo-phenyl)-6-[2-(5-bromo-pyrimidin-2-yloxy)-ethoxy]-pyrimidin-4-yl}-sulfamide]

Crystal form by X-ray powder diffraction after storage in a closed vial ([9]; closed 4 mL vial, about 3 weeks): transformed into Form A crystals
Compound: NS(=O)(=O)Nc1ncnc(OCCOc2ncc(Br)cn2)c1-c1ccc(Br)cc1 [Form B, {5-(4-bromo-phenyl)-6-[2-(5-bromo-pyrimidin-2-yloxy)-ethoxy]-pyrimidin-4-yl}-sulfamide]

Compound: COc1cc(OC)nc(O[C@H](C(=O)O)C(OC)(c2ccccc2)c2ccccc2)n1 [darusentan]
Fluid retention/edema (most frequent adverse event) ([11]; 12% in each of the other groups): 28%
Primary endpoint systolic blood pressure [11]: failed to show significant treatment effect
Reduction of ambulatory blood pressure [11]: demonstrated efficacy

Compound: CC(=O)S[C@@H]1CC2=CC(=O)CC[C@]2(C)[C@H]2CC[C@@]3(C)[C@@H](CC[C@@]34CCC(=O)O4)[C@H]12 [spironolactone, reference compound]
Blood pressure when added on top of Exforge HCT [6]: further reduced blood pressure
Blood pressure when added on top of Exforge HCT [7]: further reduced blood pressure
